Assay results published in publication PMC4999862, “Site-specific Isopeptide Bridge Tethering of Chimeric gp41 N-terminal Heptad Repeat Helical Trimers for the Treatment of HIV-1 Infection” (Scientific Reports, 2016).
Where two headings read alike, the source gives them in different places. Bridge positions count the residues as written; N and C are the ends. I, II: the chains in the order shown.

Columns and labels:
[1] = system: HIV-1 IIIB (subtypes B, X4)
Description: (§1) Briefly, 1 × 10^4 MT-2 cells were infected with an HIV-1 strain (100 times the half-maximal tissue culture infective dose) in 200 μL of culture medium with or without the serially diluted test compounds overnight. Assay plates were incubated for 72 h, after which 100 μL of culture supernatant was collected from each well and assayed for p24 antigen using ELISA as described previously. The EC50 value of each test compound was calculated using Calcusyn software.

[2] = system: HIV-1 BaL (subtypes B, R5)
Description: as §1

[3] = CD spectroscopy and thermal denaturation of chimeric N-trimers; type: physicochemical; settings: for Tm (°C): CD thermal denaturation at 222 nm, 15 °C to 90 °C, PBS pH 7.4, 10 μM; for Helicity (%): CD, PBS pH 7.4, 10 μM peptide
Description: All measurements were performed on an MOS-450 system (BioLogic, Claix, France) at a 4.0 nm bandwidth, 0.1 nm resolution, 0.1 cm path length, 4.0 s response time and 50 nm/min scanning speed. The individual N- and C-peptides as well as their equimolar mixtures were prepared in PBS (pH 7.4) at a final concentration of 10 μM and incubated at 37 °C for 30 min. Thermal denaturation was monitored by the ellipticity change at 222 nm by application of a thermal gradient from 15 °C to 90 °C with a 2 °C interval.

[4] = system: HIV-1 Env-mediated cell-cell fusion (HL2/3 effector cells, TZM-bl target cells); settings: for EC50: read-out: EC50 (nM) for cell-cell fusion, HL2/3 effector + TZM-bl target cells, 6 h at 37 °C, luciferase read-out, mean ± SD of three independent experiments
Description: The inhibitory activities of these peptides on HIV-1 Env-mediated cell-cell fusion were determined as described previously. Effector cells were HL2/3 cells, which stably express HIV Gag, Env, Tat, Rev, and Nef proteins at the cell surface (contributed by Drs. Barbara Felber and George Pavlakis). TZM-bl cells, which express high levels of CD4 and coreceptors, were used as target cells (contributed by Drs. John C. Kappes and Xiaoyun Wu). HL2/3 cells and TZM-b1 cells were obtained from the NIH AIDS Reference and Reagent Program. TZM-bl cells (2.5 × 10^4/well) were plated in a 96-well plate (Corning Costar) and cultured overnight at 37 °C in 5% CO2. Thereafter, serially diluted inhibitors were added (20 μL/well), followed by the addition of HL2/3 cells (7.5 × 10^4/well). After incubation for 6 h at 37 °C in 5% CO2, fusion efficiency was determined by measuring the luciferase activity using the Luciferase Assay System (Promega, Madison, WI) on a SpectraMax M5 plate reader (Molecular Devices, Sunnyvale, CA).

in vitro = type: cell-based; settings: human; uninfected MT-2 cells, XTT assay; read-out: CC50 (half maximal cytotoxic concentration)
Description: The cytotoxic effect of the compounds on MT-2 cells was determined using the XTT assay as described previously.

[5] = target: T1, C34 (HIV-1 gp41 CHR peptide) (Human immunodeficiency virus type 1 group M subtype B, UniProt P04578); type: binding; settings: CD, equimolar mixture 10 μM in PBS pH 7.4; θ222nm of 33000 for 100 % helicity
T1 sequence (P04578 628-661): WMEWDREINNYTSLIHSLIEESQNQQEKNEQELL

[6] = target: T1, C34 (HIV-1 gp41 CHR peptide); assay: Native-PAGE of N-peptides, C34 and their complexes; type: binding; settings: equimolar mixture with C34, 37 °C 30 min, PBS pH 7.2, 12% Tris-glycine gel, Coomassie
Description: Equimolar mixtures of C34 and N-peptides (80 μM in PBS, pH 7.2) were incubated at 37 °C for 30 min. After mixing with 1: 1 Tris-glycine native sample buffer (BioRad, Hercules, CA), the individual N- and C- peptides and the mixture (40 μM in PBS, pH 7.2) were loaded (25 μL in each well) onto 12% Tris-glycine gels. Gel electrophoresis was run under a constant voltage of 120 V at room temperature for 2.5 h. The gel was then stained with Coomassie blue R250.

[7] = Metabolic stability in liver homogenate; type: in vitro ADME; settings: rat liver homogenate, 20 μM, reversed-phase HPLC, UV 210 nm
Description: (§2) Three male SD rats weighing approximately 200 g each were obtained from the Animal Center of Beijing Institute of Pharmacology & Toxicology and were used for the metabolic stability assay. Animals were treated in accordance with the Animal Welfare Act and the “Guide for the Care and Use of Laboratory Animals” (NIH Publication 86-23, revised 1985). Preparation of Samples.Calibration samples were prepared by mixing various concentrations of each test compound ranging from 4 to 150 μM in H2O with rat plasma or tissue homogenate at a volume ratio of 100 μL:100 μL (Supplementary Figs S5–S7). Each test sample (100 μL) was spiked with 100 μL of acetonitrile containing 0.1% TFA. The mixture was vortexed and centrifuged at 18,000 g for 10 min. Then, the supernatant was transferred to HPLC autosampler vials, and aliquots (10 μL) were injected into the HPLC system. […] The mobile phase was composed of solvent A (water containing 0.1% TFA) and solvent B (70% acetonitrile and 0.1% TFA). […] The HPLC analysis was performed on a Waters X-Bridge C8 column (4.6 × 250 mm, 5 μm, 300 Å) at ambient temperature upon injection of 20 μL of each standard and/or sample to obtain the chromatogram. The only exception was for (IZ14N24N)3 in plasma and kidney homogenate, which was analyzed using a Phenomenex Jupiter C4 column (4.6 × 250 mm, 5 μm, 300 Å).

[8] = Metabolic stability in kidney homogenate; type: in vitro ADME; settings: rat kidney homogenate, 20 μM, reversed-phase HPLC, UV 210 nm
Description: as §2

[9] = system: NL4-3 mutant (36G)N42T/N43K; settings: read-out: EC50 against NL4-3 (36G)N42T/N43K; T20-resistant strain; MT-2 cells, p24 ELISA; mean ± SD of three independent experiments
Description: as §1

[10] = system: NL4-3 mutant (36G)V38E/N42S; settings: read-out: EC50 against NL4-3 (36G)V38E/N42S; T20-resistant strain; MT-2 cells, p24 ELISA; mean ± SD of three independent experiments
Description: as §1

[11] = system: NL4-3 mutant (36G)V38A/N42T; settings: read-out: EC50 against NL4-3 (36G)V38A/N42T; T20-resistant strain; MT-2 cells, p24 ELISA; mean ± SD of three independent experiments
Description: as §1

HIV-1NL4-3(D36G) = settings: read-out: EC50 against NL4-3 D36G; T20-sensitive strain; MT-2 cells, p24 ELISA; mean ± SD of three independent experiments
Description: as §1

NL4-3 mutant (36G)V38A = settings: read-out: EC50 against NL4-3 (36G)V38A; T20-resistant strain; MT-2 cells, p24 ELISA; mean ± SD of three independent experiments
Description: as §1

[12] = system: NL4-3 mutant (36G)V38A/N42D; settings: read-out: EC50 against NL4-3 (36G)V38A/N42D; T20-resistant strain; MT-2 cells, p24 ELISA; mean ± SD of three independent experiments
Description: as §1

[13] = system: T20-sensitive and -resistant HIV-1 NL4-3 strains; settings: read-out: EC50 values against both T20-sensitive and -resistant strains; range over the six NL4-3 strains of Table 2
Description: as §1

[14] = read-out: EC50 (nM) for inhibition HIV-1IIIB replication, MT-2 cells, 100 TCID50, 72 h, p24 ELISA, mean ± SD of three independent experiments
[15] = read-out: EC50 (nM) for inhibition HIV-1BaL replication, 100 TCID50, 72 h, p24 ELISA, mean ± SD of three independent experiments

Row | Substance | Tm (°C) [3] | Helicity (%) [3] | EC50 [4] | EC50 [1, 14] | EC50 [2, 15] | CC50 (in vitro) | Helicity (%) of the 6HBs formed between chimeric N-peptides and C34 [5] | also measured
1 | Enfuvirtide |  |  |  |  |  |  |  | EC50 ([1]; IIIB (subtypes B, X4, 72 h)): 4.9 ± 0.6 nM; EC50 ([2]; BaL (subtypes B, R5, 72 h)): 25.2 ± 1.9 nM
2 | I: Ac-IKKKIEAIEKAIEAQQHLLQLTVWGIKQLQARIL-NH2 / II: Ac-IKKKIEAIEKAIEAQQHLLQLTVWGIKQLQARIL-NH2 / III: Ac-IKKKIEAIEKAIEAQQHLLQLTVWGIKQLQARIL-NH2 (amide I:4-II:9, I:9-III:4, II:4-III:9) [(IZ10N24N)3] | > 90 °C | 100% | 28.3 ± 4.3 nM | 1.8 ± 0.7 nM | 4.7 ± 0.5 nM | 6900 ± 1000 nM | 80% | 
3 | I: Ac-EQEAIKKKIEAIEKLLQLTVWGIKQLQARILAVERYLK-NH2 / II: Ac-EQEAIKKKIEAIEKLLQLTVWGIKQLQARILAVERYLK-NH2 / III: Ac-EQEAIKKKIEAIEKLLQLTVWGIKQLQARILAVERYLK-NH2 (amide I:8-III:13, I:13-II:8, II:13-III:8) [(IZ14N24C)3] | > 90 °C | 100% | 6.4 ± 1.6 nM | 4 ± 2.3 nM | 6.6 ± 0.2 nM | 7700 ± 800 nM | 76% | 
4 | I: Ac-IKKKIEAIEKLLQLTVWGIKQLQARIL-NH2 / II: Ac-IKKKIEAIEKLLQLTVWGIKQLQARIL-NH2 / III: Ac-IKKKIEAIEKLLQLTVWGIKQLQARIL-NH2 (amide I:4-II:9, I:9-III:4, II:4-III:9) [(IZ10N17)3] | > 90 °C | 75% | 190 ± 4.6 nM | 59.4 ± 9.1 nM | 74.7 ± 6 nM | 2000 ± 200 nM | 73% | fold less potency than (IZN17R)3 in cell-cell fusion ([4]; relative to (IZN17R)3): 17 fold; complex formation with C34 in N-PAGE [6]: two bands with nearly the same density
5 | I: Ac-EQEAIKKKIEAIEKAIEAQQHLLQLTVWGIKQLQARIL-NH2 / II: Ac-EQEAIKKKIEAIEKAIEAQQHLLQLTVWGIKQLQARIL-NH2 / III: Ac-EQEAIKKKIEAIEKAIEAQQHLLQLTVWGIKQLQARIL-NH2 (amide I:8-III:13, I:13-II:8, II:13-III:8) [(IZ14N24N)3] | > 90 °C | 100% | 2.79 ± 0.1 nM | 0.4 ± 0.01 nM | 3.2 ± 0.9 nM | > 20000 nM | 87% | fold greater cell-cell fusion inhibitory activity than (IZ14N17)3 ([4]; relative to (IZ14N17)3): about 8 fold; stability in liver homogenate for 24 h [7]: highly stable; stability in kidney homogenate for 24 h [8]: highly stable; EC50 [9]: 3.3 ± 0.1 nM; EC50 [10]: 1.2 ± 0.2 nM; EC50 [11]: 1.3 ± 0.8 nM; EC50 (HIV-1NL4-3(D36G)): 1.3 ± 0.2 nM; EC50 (NL4-3 mutant (36G)V38A): 0.7 ± 0.1 nM; EC50 [12]: 2.7 ± 0.1 nM; EC50 [13]: 0.7 to 3.3 nM; complex formation with C34 in N-PAGE [6]: form a stable complex with C34
6 | I: Ac-IKKEQEAIKKKIEAIEKLLQLTVWGIKQLQARIL-NH2 / II: Ac-IKKEQEAIKKKIEAIEKLLQLTVWGIKQLQARIL-NH2 / III: Ac-IKKEQEAIKKKIEAIEKLLQLTVWGIKQLQARIL-NH2 (amide I:11-II:16, I:16-III:11, II:11-III:16) [(IZ17N17)3] | > 90 °C | 98% | 46 ± 4.6 nM | 4.1 ± 3.1 nM | 9 ± 0.2 nM | 4000 ± 300 nM | 70% | 
7 | I: Ac-IKKKIEAIEKLLQLTVWGIKQLQARILAVERYLK-NH2 / II: Ac-IKKKIEAIEKLLQLTVWGIKQLQARILAVERYLK-NH2 / III: Ac-IKKKIEAIEKLLQLTVWGIKQLQARILAVERYLK-NH2 (amide I:4-II:9, I:9-III:4, II:4-III:9) [(IZ10N24C)3] | > 90 °C | 100% | 13.8 ± 1.5 nM | 4.4 ± 0.4 nM | 11.4 ± 5.5 nM | 2000 ± 400 nM | 63% | 
8 | I: Ac-EQEAIKKKIEAIEKLLQLTVWGIKQLQARIL-NH2 / II: Ac-EQEAIKKKIEAIEKLLQLTVWGIKQLQARIL-NH2 / III: Ac-EQEAIKKKIEAIEKLLQLTVWGIKQLQARIL-NH2 (amide I:8-III:13, I:13-II:8, II:13-III:8) [(IZ14N17)3] | > 90 °C | 100% | 21.9 ± 2.4 nM | 1.9 ± 1.2 nM | 3.3 ± 2 nM | 7300 ± 1700 nM | 74% | 
